According to ChEMBL document CHEMBL4400538, “Discovery of Carboline Derivatives as Potent Antifungal Agents for the Treatment of Cryptococcal Meningitis” (J Med Chem, 2019):
Values after ≈ are worked out from the molar mass of the structure shown. Active and inactive are the calls of the source. No cut-off for these calls is given here.

How the values were obtained:
Cryptococcus neoformans [1] = test: Antifungal activity against Cryptococcus neoformans H99 after 48 hrs by growth curve assay; assay type: functional; conditions: for MIC80: var grubii H99 
[2] = Protein binding in mouse plasma; assay type: ADME, cell-free
[3] = Clearance in ICR mouse liver microsomes at 1 uM measured up to 45 mins in presence of NADPH by LC-MS/MS analysis; assay type: ADME, Microsome; conditions: 0.75 h
Candida albicans [4] = test: Antifungal activity against Candida albicans 7781 after 48 hrs by spectrophotometery; assay type: functional; conditions: Candida albicans, 7781, 48 h
Cryptococcus neoformans [5] = test: Antifungal activity against Cryptococcus neoformans ATCC 34877 after 72 hrs by spectrophotometery; assay type: functional; conditions: ATCC 34877, 72 h
Cryptococcus gattii = test: Antifungal activity against Cryptococcus gattii ATCC 14116 after 72 hrs by spectrophotometery; conditions: ATCC 14116, 72 h
[6] = Half life in ICR mouse liver microsomes at 1 uM measured up to 45 mins in presence of NADPH by LC-MS/MS analysis; assay type: ADME, Microsome
HUVEC = test: Cytotoxicity against human HUVEC; assay type: cell-based
Nakaseomyces glabratus = test: Antifungal activity against Candida glabrata 8535 after 48 hrs by spectrophotometery; assay type: functional; conditions: Nakaseomyces glabratus, 8535, 48 h
Cryptococcus neoformans [7] = test: Inhibition of melanin production in Cryptococcus neoformans H99 at 2.5 ug/ml; assay type: functional, organism-based; conditions: var grubii H99
Cryptococcus neoformans [8] = test: Antifungal activity against Cryptococcus neoformans H99 after 72 hrs by growth curve assay; assay type: functional; conditions: var grubii H99 
Nannizzia gypsea = test: Antifungal activity against Microsporum gypseum MZC after 48 hrs by spectrophotometery; assay type: functional
Cryptococcus neoformans [9] = test: Antifungal activity against Cryptococcus neoformans H99 assessed as inhibition of microbial growth at 8 ug/ml after 12 to 48 hrs by growth curve assay; assay type: functional; conditions: var grubii H99, read-out: GI
Trichophyton rubrum = test: Antifungal activity against Trichophyton rubrum TIA after 48 hrs by spectrophotometery; assay type: functional
Cryptococcus neoformans [10] = test: Antibiofilm activity against Cryptococcus neoformans H99 at 16 ug/ml after 90 mins by XTT assay; assay type: functional, organism-based; conditions: var grubii H99
Candida parapsilosis = test: Antifungal activity against Candida parapsilosis 5008 after 48 hrs by spectrophotometery; assay type: functional; conditions: Lodderomyces parapsilosis, 5008, 48 h
Aspergillus fumigatus = test: Antifungal activity against Aspergillus fumigatus 7544 after 48 hrs by spectrophotometery; assay type: functional; conditions: Aspergillus fumigatus, 7544, 48 h
Cryptococcus neoformans [11] = test: Inhibition of urease production in Cryptococcus neoformans H99 at 10 ug/ml; assay type: functional, organism-based; conditions: var grubii H99
Candida albicans [12] = test: Antifungal activity against Candida albicans 0304103 after 48 hrs by spectrophotometery; assay type: functional; conditions: Candida albicans, 0304103, 48 h
[13] = Solubility of the compound; assay type: physicochemical
Cryptococcus neoformans [14] = test: Induction of cell cycle arrest in Cryptococcus neoformans H99 assessed as accumulation at G1 phase at 4 ug/ml after 24 hrs by propidium iodide-staining based FACS analysis (reference value: 44.50%); assay type: functional, var grubii H99
Cryptococcus neoformans [15] = test: Antifungal activity against Cryptococcus neoformans H99 assessed as up-regulation of CDK1 expression at 2 to 4 ug/ml after 24 hrs by Western blot analysis; assay type: functional, organism-based; conditions: var grubii H99
Cryptococcus neoformans [16] = test: Induction of cell cycle arrest in Cryptococcus neoformans H99 assessed as accumulation at S phase at 4 ug/ml after 24 hrs by propidium iodide-staining based FACS analysis (reference value: 51.64%); assay type: functional, var grubii H99
Cryptococcus neoformans [17] = test: Antifungal activity against Cryptococcus neoformans H99 infected in ICR mouse assessed as reduction in brain fungal load at 20 mg/kg, po administered daily for 5 days; assay type: functional, organism-based; conditions: var grubii H99
Cryptococcus neoformans [18] = test: Induction of cell cycle arrest in Cryptococcus neoformans H99 assessed as accumulation at G2 phase at 4 ug/ml after 24 hrs by propidium iodide-staining based FACS analysis (reference value: 3.86%); assay type: functional, var grubii H99
Cryptococcus neoformans [19] = test: Antifungal activity against Cryptococcus neoformans H99 assessed as fragmented nuclei at 4 ug/ml after 24 hrs by TEM analysis; assay type: functional, organism-based; conditions: var grubii H99
Cryptococcus neoformans [20] = test: Antifungal activity against Cryptococcus neoformans H99 assessed as damaged cell membranes at 4 ug/ml after 24 hrs by TEM analysis; assay type: functional, organism-based; conditions: var grubii H99
Cryptococcus neoformans [21] = test: Antifungal activity against Cryptococcus neoformans H99 assessed as cell wall collapse at 4 ug/ml after 24 hrs by TEM analysis; assay type: functional, organism-based; conditions: var grubii H99
Cryptococcus neoformans [22] = test: Antifungal activity against Cryptococcus neoformans H99 assessed as up-regulation of Cdc25C expression at 2 to 4 ug/ml after 24 hrs by Western blot analysis; assay type: functional, organism-based; conditions: var grubii H99
Cryptococcus neoformans [23] = test: Antifungal activity against Cryptococcus neoformans H99 assessed as up-regulation of cyclin B1 expression at 2 to 4 ug/ml after 24 hrs by Western blot analysis; assay type: functional, organism-based; conditions: var grubii H99
Cryptococcus neoformans [24] = test: Antibiofilm activity against Cryptococcus neoformans H99 assessed as inhibition of cellular surface hydrophobicity at 10 ug/ml incubated for 24 hrs by water-hydrocarbon two-phase assay; assay type: functional, organism-based; conditions: var grubii H99

COc1cccc(NCCCn2c3c(c4ccccc42)CCNC3)c1.O=C(O)C(F)(F)F gave an MIC80 (Cryptococcus neoformans [1]) of 32 µg/mL.
With Brc1ccc(OCCCn2c3c(c4ccccc42)CCNC3)cc1.O=C(O)C(F)(F)F the MIC80 (Cryptococcus neoformans [1]) was 4 µg/mL.
In the case of COc1ccc(N2CCN(CCCn3c4c(c5ccccc53)CCNC4)CC2)cc1, the MIC80 (Cryptococcus neoformans [1]) was 64 µg/mL (≈ 158 µM).
Fc1cccc(NCCCn2c3c(c4ccccc42)CCNC3)c1.O=C(O)C(F)(F)F gave an MIC80 (Cryptococcus neoformans [1]) of 16 µg/mL.
CN(C)CCn1c2c(c3ccccc31)CCNC2 showed an MIC80 (Cryptococcus neoformans [1]) of 64 µg/mL (≈ 263 µM).
Brc1ccccc1OCCCn1c2c(c3ccccc31)CCNC2.O=C(O)C(F)(F)F gave an MIC80 (Cryptococcus neoformans [1]) of 8 µg/mL.
With Cc1cccc2c3c(n(CCCOc4ccc(Cl)cc4)c12)CNCC3.O=C(O)C(F)(F)F the MIC80 (Cryptococcus neoformans [1]) was 2 µg/mL.
With Cc1ccc2c(c1)c1c(n2CCCOc2ccc(Cl)cc2)CNCC1.O=C(O)C(F)(F)F the PPB [2] was “Active”, the scaled CLint [3] was 477 mL/min/kg and the MIC80 (Candida albicans [4]) was 4 µg/mL. The MIC80 (Cryptococcus neoformans [5]) was 2 µg/mL, the MIC80 (Cryptococcus gattii) was 2 µg/mL and the half-life at 1 µM [6] was 11 min. For the same compound, the Activity (HUVEC) was “Non-Toxic”, the Activity (Cryptococcus neoformans [1]; var grubii H99) was “Dose-dependent effect” and the MIC80 (Cryptococcus neoformans [1]) was 1 µg/mL. The MIC80 (Nakaseomyces glabratus) was 2 µg/mL, the inhibition (Cryptococcus neoformans [7]) was “Active” and the MIC80 (Cryptococcus neoformans [8]) was 2 µg/mL. For the same compound, the MIC80 (Nannizzia gypsea) was 8 µg/mL, the inhibition of growth at 8 µg/mL (Cryptococcus neoformans [9]) was 100% and the MIC80 (Trichophyton rubrum) was 4 µg/mL. The Activity (Cryptococcus neoformans [10]) was “Active”, the MIC80 (Candida parapsilosis) was 8 µg/mL and the MIC80 (Aspergillus fumigatus) was 8 µg/mL. For the same compound, the inhibition (Cryptococcus neoformans [11]) was “inactive”, the MIC80 (Candida albicans [12]) was 4 µg/mL and the solubility [13] was 57.5 µg/mL.
In the case of COc1ccccc1N1CCN(CCCn2c3c(c4ccccc42)CCNC3)CC1, the MIC80 (Cryptococcus neoformans [1]) was 64 µg/mL (≈ 158 µM).
For c1ccc2c(c1)c1c(n2CCCNC2CCCC2)CNCC1, the MIC80 (Cryptococcus neoformans [1]) was 64 µg/mL (≈ 215 µM).
Clc1ccc(NCCCn2c3c(c4ccccc42)CCNC3)cc1.O=C(O)C(F)(F)F showed an MIC80 (Cryptococcus neoformans [1]) of 8 µg/mL.
COc1ccc(NCCCn2c3c(c4ccccc42)CCNC3)cc1.O=C(O)C(F)(F)F showed an MIC80 (Cryptococcus neoformans [1]) of 32 µg/mL.
In the case of CCOc1ccc(NCCCn2c3c(c4ccccc42)CCNC3)cc1.O=C(O)C(F)(F)F, the MIC80 (Cryptococcus neoformans [1]) was 32 µg/mL.
In the case of Clc1ccc(OCCCn2c3c(c4c(Cl)cccc42)CCNC3)cc1.O=C(O)C(F)(F)F, the MIC80 (Cryptococcus neoformans [1]) was 4 µg/mL.
Compound Cc1ccc2c3c(n(CCCOc4ccc(Cl)cc4)c2c1)CNCC3.O=C(O)C(F)(F)F has an MIC80 (Cryptococcus neoformans [1]) of 2 µg/mL.
Work on Fc1ccc(NCCCn2c3c(c4ccccc42)CCNC3)cc1.O=C(O)C(F)(F)F yielded an MIC80 (Cryptococcus neoformans [1]) of 16 µg/mL.
Clc1ccc(OCCCn2c3c(c4c(Br)cccc42)CCNC3)cc1.O=C(O)C(F)(F)F showed an MIC80 (Cryptococcus neoformans [1]) of 8 µg/mL.
Work on c1ccc2c(c1)c1c(n2CCN2CCOCC2)CNCC1 yielded an MIC80 (Cryptococcus neoformans [1]) of 64 µg/mL (≈ 224 µM).
In the case of c1ccc2c(c1)c1c(n2CCCN2CCCC2)CNCC1, the MIC80 (Cryptococcus neoformans [1]) was 64 µg/mL (≈ 226 µM).
Fc1ccc2c3c(n(CCCOc4ccc(Cl)cc4)c2c1)CNCC3.O=C(O)C(F)(F)F showed an MIC80 (Cryptococcus neoformans [1]) of 2 µg/mL.
Cc1ccc(OCCCn2c3c(c4ccccc42)CCNC3)cc1.O=C(O)C(F)(F)F showed an MIC80 (Cryptococcus neoformans [1]) of 8 µg/mL.
For Clc1ccc(OCCCn2c3c(c4cccc(Br)c42)CCNC3)cc1.O=C(O)C(F)(F)F, the MIC80 (Cryptococcus neoformans [1]) was 4 µg/mL.
Brc1ccc(NCCCn2c3c(c4ccccc42)CCNC3)cc1.O=C(O)C(F)(F)F gave an MIC80 (Cryptococcus neoformans [1]) of 8 µg/mL.
With Fc1ccccc1NCCCn1c2c(c3ccccc31)CCNC2.O=C(O)C(F)(F)F the MIC80 (Cryptococcus neoformans [1]) was 16 µg/mL.
For C1=CCN(CCCn2c3c(c4ccccc42)CCNC3)C1, the MIC80 (Cryptococcus neoformans [1]) was 64 µg/mL (≈ 227 µM).
In the case of Clc1ccc(OCCCn2c3c(c4cccc(Cl)c42)CCNC3)cc1.O=C(O)C(F)(F)F, the MIC80 (Cryptococcus neoformans [1]) was 2 µg/mL.
In the case of Brc1ccccc1NCCCn1c2c(c3ccccc31)CCNC2.O=C(O)C(F)(F)F, the MIC80 (Cryptococcus neoformans [1]) was 8 µg/mL.
With Clc1ccc(OCCCn2c3c(c4ccc(Br)cc42)CCNC3)cc1.O=C(O)C(F)(F)F the MIC80 (Cryptococcus neoformans [1]) was 2 µg/mL.
For OC(Cn1cncn1)(Cn1cncn1)c1ccc(F)cc1F [FLUCONAZOLE], the Activity (Cryptococcus neoformans [14]) was 50.86%, the Activity (Cryptococcus neoformans [15]) was “inactive” and the Activity (Cryptococcus neoformans [16]) was 48.17%. The Activity (Cryptococcus neoformans [17]) was “Active”, the Activity (Cryptococcus neoformans [18]) was 0.96% and the MIC80 (Candida albicans [4]) was 32 µg/mL (≈ 104 µM). For the same compound, the Activity (Cryptococcus neoformans [19]) was “Active”, the MIC80 (Cryptococcus neoformans [5]) was 4 µg/mL (≈ 13.1 µM) and the MIC80 (Cryptococcus gattii) was 4 µg/mL (≈ 13.1 µM). The Activity (Cryptococcus neoformans [20]) was “Active”, the MIC80 (Cryptococcus neoformans [1]) was 4 µg/mL (≈ 13.1 µM) and the MIC80 (Nakaseomyces glabratus) was 4 µg/mL (≈ 13.1 µM). The Activity (Cryptococcus neoformans [21]) was “inactive”, the inhibition (Cryptococcus neoformans [7]) was “inactive” and the Activity (Cryptococcus neoformans [22]) was “inactive”. The Activity (Cryptococcus neoformans [23]) was “inactive”, the MIC80 (Cryptococcus neoformans [8]) was 2 µg/mL (≈ 6.53 µM) and the MIC80 (Nannizzia gypsea) was 16 µg/mL (≈ 52.2 µM). The Activity (Cryptococcus neoformans [24]) was “inactive”, the MIC80 (Trichophyton rubrum) was 2 µg/mL (≈ 6.53 µM) and the MIC80 (Candida parapsilosis) was 32 µg/mL (≈ 104 µM). For the same compound, the MIC80 (Aspergillus fumigatus) was over 64 µg/mL and the MIC80 (Candida albicans [12]) was over 64 µg/mL.
Compound c1ccc(N2CCN(CCCn3c4c(c5ccccc53)CCNC4)CC2)cc1 has an MIC80 (Cryptococcus neoformans [1]) of 32 µg/mL (≈ 85.4 µM).
COc1ccc(OCCCn2c3c(c4ccccc42)CCNC3)cc1.O=C(O)C(F)(F)F gave an MIC80 (Cryptococcus neoformans [1]) of 16 µg/mL.
